# In BindingDB's records for doi:10.1021/jm970856n (Novartis Pharma, 1998):
# Molecular target: T1, SHC-transforming protein 2 (Homo sapiens, UniProt P98077)
# T1 sequence (P98077 whole entry): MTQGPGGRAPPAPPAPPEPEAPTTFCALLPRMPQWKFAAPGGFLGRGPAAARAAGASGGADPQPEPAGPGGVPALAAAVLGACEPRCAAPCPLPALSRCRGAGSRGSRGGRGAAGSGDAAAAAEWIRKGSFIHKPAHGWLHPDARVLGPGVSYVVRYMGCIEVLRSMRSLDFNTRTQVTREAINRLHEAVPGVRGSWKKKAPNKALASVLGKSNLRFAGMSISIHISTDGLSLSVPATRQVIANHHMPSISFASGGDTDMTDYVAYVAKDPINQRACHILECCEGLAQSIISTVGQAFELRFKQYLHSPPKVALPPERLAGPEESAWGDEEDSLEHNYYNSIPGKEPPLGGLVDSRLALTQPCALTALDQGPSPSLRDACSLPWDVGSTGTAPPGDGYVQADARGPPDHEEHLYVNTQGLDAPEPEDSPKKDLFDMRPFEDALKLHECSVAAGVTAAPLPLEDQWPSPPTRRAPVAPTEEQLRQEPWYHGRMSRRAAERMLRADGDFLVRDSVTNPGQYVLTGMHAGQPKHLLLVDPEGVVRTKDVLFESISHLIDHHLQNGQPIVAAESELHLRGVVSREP
# Assay: Inhibition of binding to SH2 domain of SHC-PTB
structure (smiles),measurement,value
"NC(=O)CC(NC(=O)C1(NC(=O)C(N)Cc2ccc(OP(=O)(O)O)c(N)c2)CCCCC1)C(N)=O (stereo unspecified) [Phosphoric acid mono-(2-amino-4-{2-amino-2-[1-(1,2-dicarbamoyl-ethylcarbamoyl)-cyclohexylcarbamoyl]-ethyl}-phenyl) ester]",IC50,> 5 µM
